# Structures can show the parent of a compound that is named as a salt.
# Columns and labels:
# Swiss albino mice = assay: plasma triglyceride lowering activity in Swiss albino mice; type: in vivo; conditions: 3.0 mg/kg orally for 6 days
# Experimental: The properties of the derivatives of the invention were also evaluated in vivo. The following procedure was used to determine plasma triglyceride and total cholesterol lowering activity in Swiss albino mice.
# Male Swiss albino mice (SAM) were obtained from National Institute Nutrition (NIN) and housed in Dr. Reddy's Laboratories Ltd (DRL) animal house. All these animals are maintained under 12 hour light and dark cycle at 25±1° C. Animals were given standard laboratory chow (NIN, Hyderabad, India) and water, ad libitum. SAM of 20-25 grams body weight range were used. See Oliver, P., Plancke, M. O., Marzin, D., Clavey, V., Sauzieres, J and Fruchart, J. C. Effects of fenofibrate, gemfibrozil and nicotinic acid on plasma lipoprotein levels in normal and hyperlipidemic mice, Atherosclerosis. 1988. 70: 107-114, incorporated herein by reference in its entirety. The test compounds can be administered orally to Swiss albino mice at the dose mentioned in table for 6 days. Control mice were treated with vehicle 0.25% Carboxymethylcellulose (CMC; dose 10 ml/kg). The blood samples from the retro-orbital sinus through heparinised capillary in EDTA containing tubes were collected in fed state 1 hour after drug administration on 0 and 6 days of treatment. After centrifugation plasma was separated for triglyceride measurement using commercial kits. See Wieland, O. Methods of Enzymatic analysis. Bergermeyer, H. O., Ed., 1963. 211-214; Trinder, P. Ann. Clin. Biochem. 1969. 6: 24-27, incorporated herein by reference in its entirety. Percent reduction was calculated as per the formula given in Petit, D., Bonnefis, M. T., Rey, C. and Infante, R. Effects of ciprofibrate on liver lipids and lipoprotein synthesis in normo- and hyperlipidemic rats. Atherosclerosis. 1988. 74 : 215-225.
# human PPARα = molecular target: T1, human PPARα (Homo sapiens, UniProt Q07869); assay: in vitro PPARα transactivation, GAL4-LBD luciferase reporter in HEK-293 cells; type: cell-based; conditions: luciferase fold activation relative to untreated cells
# T1 construct: expressed in transfected cells; host or cells: HEK-293
# T1 sequence (Q07869 239-466 limits assumed): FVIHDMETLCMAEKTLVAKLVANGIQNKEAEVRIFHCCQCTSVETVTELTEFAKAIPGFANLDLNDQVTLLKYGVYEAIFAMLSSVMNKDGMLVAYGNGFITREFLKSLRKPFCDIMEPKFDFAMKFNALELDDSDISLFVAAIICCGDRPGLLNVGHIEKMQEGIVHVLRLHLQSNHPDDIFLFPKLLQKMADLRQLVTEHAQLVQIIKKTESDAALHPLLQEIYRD
# Source text: A number of derivatives of the invention have shown PPAR agonist activity. The following procedure was used for in vitro determination of PPARα, γ and δ transactivation.
# (§1) The ligand binding domain of human PPARγ1, PPARα or PPARδ was fused to the C-terminal end of DNA binding domain of yeast transcription factor GAL4 in eukaryotic expression vector. HEK-293 cells were transfected with either of these plasmids, reporter plasmid pGL2 (Gal4×5)˜SV40˜Luc and pAdVantage using superfect (Qiagen, Germany) for 3 hours. pAdVantage vector was used to enhance the luciferase expression. 48 hours after transfection, the cells were harvested and incubated overnight with or without test compounds at different concentrations. The cells were lysed and luciferase activity was measured using the LucLite kit (Packard USA). Luciferase activity was measured as fold activation relative to untreated cells.
# human PPARδ = molecular target: T2, human PPARδ (Homo sapiens, UniProt Q03181); assay: in vitro PPARδ transactivation, GAL4-LBD luciferase reporter in HEK-293 cells; type: cell-based; conditions: luciferase fold activation relative to untreated cells
# T2 construct: expressed in transfected cells; host or cells: HEK-293
# T2 sequence (Q03181 211-439 limits assumed): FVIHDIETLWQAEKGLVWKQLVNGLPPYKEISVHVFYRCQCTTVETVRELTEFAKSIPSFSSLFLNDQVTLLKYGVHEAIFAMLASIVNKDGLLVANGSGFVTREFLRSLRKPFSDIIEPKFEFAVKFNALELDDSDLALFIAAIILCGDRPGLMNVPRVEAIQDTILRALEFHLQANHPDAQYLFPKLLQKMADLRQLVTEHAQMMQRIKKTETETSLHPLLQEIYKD
# Experimental: (§2) The following procedure was used for in vitro determination of PPARα, γ and δ transactivation.
# as §1
# [1] = system: hypercholesterolemic rat model; assay: plasma triglyceride and cholesterol lowering activity in hypercholesterolemic rat model; type: in vivo, Sprague Dawley rats; conditions: hypercholesterolemic rats, 3.0 mg/kg orally for 3 days; for Reduction (%) LDL: LDL cholesterol calculated by formula; for ↑HDL: increase of plasma HDL (under head Reduction (%)); for Reduction (%) TC: plasma total cholesterol; for Reduction (%) TG: plasma triglyceride
# Experimental: The following procedure was used to determine plasma triglyceride and cholesterol lowering activity in hypercholesterolemic rat model.
# Male Sprague Dawley rats (NIN stock) were bred in DRL animal house. Animals were maintained under 12 hour light and dark cycle at 25±1° C. Rats of 180-200 gram body weight range were used for the experiment. Animals are made hypercholesterolemic by feeding 2% cholesterol and 1% sodium cholate mixed with standard laboratory chow [National Institute of Nutrition (NIN), Hyderabad, India] for 6 days. Throughout the experimental period the animals were maintained on the same diet. The test compounds were administered orally at a dose mentioned in table for 3 days. Control group was treated with vehicle alone (0.25% CMC; 10 ml/kg). The blood samples were collected in fed state 1 hour after drug administration on 0 and 3 days of compound treatment. The blood was collected from the retro-orbital sinus through heparinised capillary in EDTA containing tubes. After centrifugation, plasma sample was separated for total cholesterol, HDL and triglyceride estimations. Measurement of plasma triglyceride, total cholesterol and HDL were done using commercial kits. LDL and VLDL cholesterol can be calculated from the data obtained for total cholesterol, HDL and triglyceride.
# The percent reductions in blood sugar/triglycerides/total cholesterol were calculated according to the following formula:
# OC=Zero day control group value
# OT=Zero day treated group value
# TC=Test day control group value
# T=Test day treated group value.
# The levels of LDL and VLDL cholesterol were calculated according to the formula:
# VLDL cholesterol in mg/dl=[Total cholesterol-HDL cholesterol-LDL cholesterol] mg/dl.
# human PPARγ1 = molecular target: T3, human PPARγ1 (Homo sapiens, UniProt P37231); assay: in vitro PPARγ transactivation, GAL4-LBD luciferase reporter in HEK-293 cells; type: cell-based; conditions: luciferase fold activation relative to untreated cells
# T3 construct: expressed in transfected cells; host or cells: HEK-293
# T3 sequence (P37231 238-503 limits assumed): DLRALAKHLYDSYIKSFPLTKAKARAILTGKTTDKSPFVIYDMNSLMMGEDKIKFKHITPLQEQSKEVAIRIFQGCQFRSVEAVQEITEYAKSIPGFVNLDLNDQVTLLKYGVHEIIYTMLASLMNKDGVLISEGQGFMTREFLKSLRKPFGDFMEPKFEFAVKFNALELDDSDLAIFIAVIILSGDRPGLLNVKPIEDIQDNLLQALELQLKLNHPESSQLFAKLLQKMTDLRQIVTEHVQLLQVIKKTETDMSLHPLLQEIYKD
# Experimental: as §2, §1
PPARα activation (human PPARα; test compound at 1 μM),PPARα activation (human PPARα; test compound at 10 μM),PPARδ activation (human PPARδ; test compound at 1 μM),PPARδ activation (human PPARδ; test compound at 10 μM),melting point [°C],PPARγ activation (human PPARγ1; test compound at 1 μM),PPARγ activation (human PPARγ1; test compound at 10 μM),SMILES,% reduction in TG (Swiss albino mice) [%],Reduction (%) LDL [1] [%],↑HDL [1] [%],Reduction (%) TC [1] [%],Reduction (%) TG [1] [%],% reduction in TG (Swiss albino mice; 3 mg/kg) [%],Reduction (%) LDL ([1]; 3 mg/kg) [%],↑HDL ([1]; 3 mg/kg) [%],Reduction (%) TC ([1]; 3 mg/kg) [%],Reduction (%) TG ([1]; 3 mg/kg) [%]
–,–,–,–,–,–,–,"CCCc1nn(C)c2c(=O)n(CCCc3ccc(OC(C)(C)C(=O)O)cc3)c(C)nc12.N=C(N)NCCC[C@H](N)C(=O)O [Example 79, Argenine salt of 2-{4-[3-(1,5-dimethyl-7-oxo-3-propyl-1,7-dihydro-pyrazolo[4,3-d]pyrimidin-6-yl)-propyl]-phenoxy}-2-methyl-propionic acid]",55,–,–,–,–,–,–,–,–,–
7.1,8.4,0,0,–,–,–,"CCCc1nn(C)c2c(=O)n(CCCc3cccc(OC(C)(C)C(=O)O)c3)c(C)nc12.N=C(N)NCCC[C@H](N)C(=O)O [Example 82, Argenine salt of 2-{3-[3-(1,5-dimethyl-7-oxo-3-propyl-1,7-dihydro-pyrazolo[4,3-d]pyrimidin-6-yl)-propyl]-phenoxy}-2-methyl-propionic acid]",81,72,48,68,69,–,–,–,–,–
1.6,3.6,0.3,0.6,86 to 88,–,–,"CCCc1nn(C)c2c(=O)n(CCOc3cccc(OC(C)(C)C(=O)OCC)c3)c(C)nc12 [Example 88, 2-{3-[2-(1,5-Dimethyl-7-oxo-3-propyl-1,7-dihydro-pyrazolo[4,3-d]pyrimidin-6-yl)-ethoxy]-phenoxy}-2-methyl-propionic acid ethyl ester]",–,–,–,–,–,–,–,–,–,–
2.1,7.4,0,0.4,140 to 142,0(54.5),0(62.8),"CCCc1nn(C)c2c(=O)n(CCOc3cccc(OC(C)(C)C(=O)O)c3)c(C)nc12 [Example 89, 2-{3-[2-(1,5-Dimethyl-7-oxo-3-propyl-1,7-dihydro-pyrazolo[4,3-d]pyrimidin-6-yl)-ethoxy]-phenoxy}-2-methyl-propionic acid]",60,68,102,65,68,–,–,–,–,–
6.4,7.3,0.1,4.0,–,17.3(85.5),36.6(110.3),"CCCc1nn(C)c2c(=O)n(CCCc3ccc(OC(C)(CC)C(=O)O)cc3)c(C)nc12 (centres unmarked) [Example 95, 2-{4-[3-(1,5-Dimethyl-7-oxo-3-propyl-1,7-dihydro-pyrazolo[4,3-d]pyrimidin-6-yl)-propyl]-phenoxy}-2-methyl-butyric acid]",–,–,–,–,–,63,69,212,64,67
–,–,–,–,–,–,–,"CCCc1nn(C)c2c(=O)n(CCCc3ccc(OC(C)(CC)C(=O)O)cc3)c(C)nc12 (centres unmarked) [Example 96, Magnesium salt of 2-{4-[3-(1,5-dimethyl-7-oxo-3-propyl-1,7-dihydro-pyrazolo[4,3-d]pyrimidin-6-yl)-propyl]-phenoxy}-2-methyl-butyric acid]",–,–,–,–,–,60,67,162,63,76
–,–,–,–,118 to 120,–,–,"CCCc1nn(C)c2c(=O)n(CCOc3cccc(O[C@](C)(CC)C(=O)O)c3)c(C)nc12 [Example 100, R-(+)-2-{3-[2-(1,5-Dimethyl-7-oxo-3-propyl-1,7-dihydro-pyrazolo[4,3-d]pyrimidin-6-yl)-ethoxy]-phenoxy}-2-methyl-butyric acid]",76,76,145,70,60,–,–,–,–,–
3.9,5.2,1.7,1.3,98 to 100,–,–,"CCCc1nn(C)c2c(=O)n(CCOc3cc(O[C@](C)(CC)C(=O)O)ccc3Cl)c(C)nc12 [Example 102, R-(+)-2-{4-Chloro-3-[2-(1,5-dimethyl-7-oxo-3-propyl-1,7-dihydro-pyrazolo[4,3-d]pyrimidin-6-yl)-ethoxy]-phenoxy}-2-methyl-butyric acid]",67,55,45,51,51,–,–,–,–,–
–,–,–,–,119 to 120,–,–,"CCCc1nn(C)c2c(=O)n(CCOc3cccc(O[C@@](C)(CC)C(=O)O)c3)c(C)nc12 [Example 104, S-(−)-2-{3-[2-(1,5-Dimethyl-7-oxo-3-propyl-1,7-dihydro-pyrazolo[4,3-d]pyrimidin-6-yl)-ethoxy]-phenoxy}-2-methyl-butyric acid]",70,77,158,71,72,–,–,–,–,–

# — patent US20080114005A1, “Fibrate Compounds Having Ppar Agonist Activity” (Dr. Reddy's Laboratories Limited, priority 2004, published 2008)
